ChEMBL document CHEMBL1151464 (2008)

How the values were obtained:
Type in all cases: functional
Pseudomonas aeruginosa [1] = test: Antibacterial activity against Pseudomonas aeruginosa isolate 323 after 24 hrs by CLSI microdilution method
Pseudomonas aeruginosa [2] = test: Antibacterial activity against Pseudomonas aeruginosa isolate 332 after 24 hrs by CLSI microdilution method
Acinetobacter baumannii [3] = test: Antibacterial activity against Acinetobacter baumannii isolate 926 after 24 hrs by CLSI microdilution method
Pseudomonas aeruginosa [4] = test: Antibacterial activity against Pseudomonas aeruginosa isolate 339 after 24 hrs by CLSI microdilution method
Pseudomonas aeruginosa [5] = test: Antibacterial activity against Pseudomonas aeruginosa isolate 341 after 24 hrs by CLSI microdilution method
Pseudomonas aeruginosa [6] = test: Antibacterial activity against Pseudomonas aeruginosa isolate 349 after 24 hrs by CLSI microdilution method
Acinetobacter baumannii [7] = test: Antibacterial activity against Acinetobacter baumannii isolate 892 after 24 hrs by CLSI microdilution method
Acinetobacter baumannii [8] = test: Antibacterial activity against Acinetobacter baumannii isolate 916 after 24 hrs by CLSI microdilution method
Acinetobacter baumannii [9] = test: Antibacterial activity against Acinetobacter baumannii isolate 925 after 24 hrs by CLSI microdilution method
Acinetobacter baumannii [10] = test: Antibacterial activity against Acinetobacter baumannii isolate 893 after 24 hrs by CLSI microdilution method
Acinetobacter baumannii [11] = test: Antibacterial activity against Acinetobacter baumannii isolate 907 after 24 hrs by CLSI microdilution method
Pseudomonas aeruginosa [12] = test: Antibacterial activity against Pseudomonas aeruginosa isolate 362 after 24 hrs by CLSI microdilution method
Acinetobacter baumannii [13] = test: Antibacterial activity against Acinetobacter baumannii isolate 919 after 24 hrs by CLSI microdilution method
Acinetobacter baumannii [14] = test: Antibacterial activity against Acinetobacter baumannii isolate 905 after 24 hrs by CLSI microdilution method
Pseudomonas aeruginosa [15] = test: Antibacterial activity against Pseudomonas aeruginosa isolate 326 after 24 hrs by CLSI microdilution method
Pseudomonas aeruginosa [16] = test: Antibacterial activity against Pseudomonas aeruginosa isolate 360 after 24 hrs by CLSI microdilution method
Acinetobacter baumannii [17] = test: Antibacterial activity against Acinetobacter baumannii isolate 928 after 24 hrs by CLSI microdilution method
Acinetobacter baumannii [18] = test: Antibacterial activity against Acinetobacter baumannii isolate 929 after 24 hrs by CLSI microdilution method
Acinetobacter baumannii [19] = test: Antibacterial activity against Acinetobacter baumannii isolate 902 after 24 hrs by CLSI microdilution method
Acinetobacter baumannii [20] = test: Antibacterial activity against Acinetobacter baumannii isolate 884 after 24 hrs by CLSI microdilution method
Acinetobacter baumannii [21] = test: Antibacterial activity against Acinetobacter baumannii isolate 887 after 24 hrs by CLSI microdilution method
Acinetobacter baumannii [22] = test: Antibacterial activity against Acinetobacter baumannii isolate 921 after 24 hrs by CLSI microdilution method
Pseudomonas aeruginosa [23] = test: Antibacterial activity against Pseudomonas aeruginosa isolate 372 after 24 hrs by CLSI microdilution method
Acinetobacter baumannii [24] = test: Antibacterial activity against Acinetobacter baumannii isolate 912 after 24 hrs by CLSI microdilution method
Acinetobacter baumannii [25] = test: Antibacterial activity against Acinetobacter baumannii isolate 896 after 24 hrs by CLSI microdilution method
Acinetobacter baumannii [26] = test: Antibacterial activity against Acinetobacter baumannii isolate 885 after 24 hrs by CLSI microdilution method
Pseudomonas aeruginosa [27] = test: Antibacterial activity against Pseudomonas aeruginosa isolate 344 after 24 hrs by CLSI microdilution method
Acinetobacter baumannii [28] = test: Antibacterial activity against Acinetobacter baumannii isolate 886 after 24 hrs by CLSI microdilution method
Pseudomonas aeruginosa [29] = test: Antibacterial activity against Pseudomonas aeruginosa isolate 337 after 24 hrs by CLSI microdilution method
Acinetobacter baumannii [30] = test: Antibacterial activity against Acinetobacter baumannii isolate 890 after 24 hrs by CLSI microdilution method
Pseudomonas aeruginosa [31] = test: Antibacterial activity against Pseudomonas aeruginosa isolate 365 after 24 hrs by CLSI microdilution method
Acinetobacter baumannii [32] = test: Antibacterial activity against Acinetobacter baumannii isolate 910 after 24 hrs by CLSI microdilution method
Acinetobacter baumannii [33] = test: Antibacterial activity against Acinetobacter baumannii isolate 932 expressing OXA-24 and OXA-51 beta-lactamase after 24 hrs by CLSI microdilution method
Pseudomonas aeruginosa [34] = test: Antibacterial activity against Pseudomonas aeruginosa isolate 353 after 24 hrs by CLSI microdilution method
Pseudomonas aeruginosa [35] = test: Antibacterial activity against Pseudomonas aeruginosa isolate 319 after 24 hrs by CLSI microdilution method
Acinetobacter baumannii [36] = test: Antibacterial activity against Acinetobacter baumannii isolate 913 after 24 hrs by CLSI microdilution method
Pseudomonas aeruginosa [37] = test: Antibacterial activity against Pseudomonas aeruginosa isolate 340 after 24 hrs by CLSI microdilution method
Acinetobacter baumannii [38] = test: Antibacterial activity against Acinetobacter baumannii isolate 903 after 24 hrs by CLSI microdilution method
Pseudomonas aeruginosa [39] = test: Antibacterial activity against Pseudomonas aeruginosa isolate 345 after 24 hrs by CLSI microdilution method
Acinetobacter baumannii [40] = test: Antibacterial activity against Acinetobacter baumannii isolate 883 after 24 hrs by CLSI microdilution method
Acinetobacter baumannii [41] = test: Antibacterial activity against Acinetobacter baumannii isolate 904 after 24 hrs by CLSI microdilution method
Pseudomonas aeruginosa [42] = test: Antibacterial activity against Pseudomonas aeruginosa isolate 356 after 24 hrs by CLSI microdilution method
Pseudomonas aeruginosa [43] = test: Antibacterial activity against Pseudomonas aeruginosa isolate 370 after 24 hrs by CLSI microdilution method
Pseudomonas aeruginosa [44] = test: Antibacterial activity against Pseudomonas aeruginosa isolate 375 after 24 hrs by CLSI microdilution method
Acinetobacter baumannii [45] = test: Antibacterial activity against Acinetobacter baumannii isolate 918 after 24 hrs by CLSI microdilution method
Pseudomonas aeruginosa [46] = test: Antibacterial activity against Pseudomonas aeruginosa isolate 327 after 24 hrs by CLSI microdilution method
Pseudomonas aeruginosa [47] = test: Antibacterial activity against Pseudomonas aeruginosa isolate 355 after 24 hrs by CLSI microdilution method
Pseudomonas aeruginosa [48] = test: Antibacterial activity against Pseudomonas aeruginosa isolate 366 after 24 hrs by CLSI microdilution method
Acinetobacter baumannii [49] = test: Antibacterial activity against Acinetobacter baumannii isolate 923 after 24 hrs by CLSI microdilution method
Pseudomonas aeruginosa [50] = test: Antibacterial activity against Pseudomonas aeruginosa isolate 330 after 24 hrs by CLSI microdilution method
Pseudomonas aeruginosa [51] = test: Antibacterial activity against Pseudomonas aeruginosa isolate 324 after 24 hrs by CLSI microdilution method
Acinetobacter baumannii [52] = test: Antibacterial activity against Acinetobacter baumannii isolate 897 after 24 hrs by CLSI microdilution method
Acinetobacter baumannii [53] = test: Antibacterial activity against Acinetobacter baumannii isolate 888 after 24 hrs by CLSI microdilution method
Pseudomonas aeruginosa [54] = test: Antibacterial activity against Pseudomonas aeruginosa isolate 335 after 24 hrs by CLSI microdilution method
Acinetobacter baumannii [55] = test: Antibacterial activity against Acinetobacter baumannii isolate 934 after 24 hrs by CLSI microdilution method
Acinetobacter baumannii [56] = test: Antibacterial activity against Acinetobacter baumannii isolate 927 after 24 hrs by CLSI microdilution method
Acinetobacter baumannii [57] = test: Antibacterial activity against Acinetobacter baumannii isolate 920 after 24 hrs by CLSI microdilution method
Acinetobacter baumannii [58] = test: Antibacterial activity against Acinetobacter baumannii isolate 889 after 24 hrs by CLSI microdilution method
Pseudomonas aeruginosa [59] = test: Antibacterial activity against Pseudomonas aeruginosa isolate 373 after 24 hrs by CLSI microdilution method

COLISTIN
MIC (Pseudomonas aeruginosa [1]): 0.25 µg/mL
MIC (Pseudomonas aeruginosa [2]): 0.5 µg/mL
MIC (Acinetobacter baumannii [3]): 2 µg/mL
MIC (Pseudomonas aeruginosa [4]): 1 µg/mL
MIC (Pseudomonas aeruginosa [5]): 0.5 µg/mL
MIC (Pseudomonas aeruginosa [6]): 1 µg/mL
MIC (Acinetobacter baumannii [7]): 16 µg/mL
MIC (Acinetobacter baumannii [8]): 0.12 µg/mL
MIC (Acinetobacter baumannii [9]): 16 µg/mL
MIC (Acinetobacter baumannii [10]): 0.5 µg/mL
MIC (Acinetobacter baumannii [11]): 1 µg/mL
MIC (Pseudomonas aeruginosa [12]): 1 µg/mL
MIC (Acinetobacter baumannii [13]): 0.5 µg/mL
MIC (Acinetobacter baumannii [14]): 4 µg/mL
MIC (Pseudomonas aeruginosa [15]): 1 µg/mL
MIC (Pseudomonas aeruginosa [16]): 1 µg/mL
MIC (Acinetobacter baumannii [17]): 1 µg/mL
MIC (Acinetobacter baumannii [18]): 32 µg/mL
MIC (Acinetobacter baumannii [19]): 2 µg/mL
MIC (Acinetobacter baumannii [20]): 2 µg/mL
MIC (Acinetobacter baumannii [21]): 16 µg/mL
MIC (Acinetobacter baumannii [22]): 1 µg/mL
MIC (Pseudomonas aeruginosa [23]): 1 µg/mL
MIC (Acinetobacter baumannii [24]): 0.5 µg/mL
MIC (Acinetobacter baumannii [25]): 2 µg/mL
MIC (Acinetobacter baumannii [26]): 2 µg/mL
MIC (Pseudomonas aeruginosa [27]): 0.5 µg/mL
MIC (Acinetobacter baumannii [28]): 1 µg/mL
MIC (Pseudomonas aeruginosa [29]): 1 µg/mL
MIC (Acinetobacter baumannii [30]): 2 µg/mL
MIC (Pseudomonas aeruginosa [31]): 2 µg/mL
MIC (Acinetobacter baumannii [32]): 0.25 µg/mL
MIC (Acinetobacter baumannii [33]): 0.5 µg/mL
MIC (Pseudomonas aeruginosa [34]): 0.25 µg/mL
MIC (Pseudomonas aeruginosa [35]): 2 µg/mL
MIC (Acinetobacter baumannii [36]): 0.25 µg/mL
MIC (Pseudomonas aeruginosa [37]): 1 µg/mL
MIC (Acinetobacter baumannii [38]): 0.25 µg/mL
MIC (Pseudomonas aeruginosa [39]): 1 µg/mL
MIC (Acinetobacter baumannii [40]): 32 µg/mL
MIC (Acinetobacter baumannii [41]): 16 µg/mL
MIC (Pseudomonas aeruginosa [42]): 1 µg/mL
MIC (Pseudomonas aeruginosa [43]): 2 µg/mL
MIC (Pseudomonas aeruginosa [44]): 0.5 µg/mL
MIC (Acinetobacter baumannii [45]): 4 µg/mL
MIC (Pseudomonas aeruginosa [46]): 2 µg/mL
MIC (Pseudomonas aeruginosa [47]): 1 µg/mL
MIC (Pseudomonas aeruginosa [48]): 0.5 µg/mL
MIC (Acinetobacter baumannii [49]): 4 µg/mL
MIC (Pseudomonas aeruginosa [50]): 1 µg/mL
MIC (Pseudomonas aeruginosa [51]): 2 µg/mL
MIC (Acinetobacter baumannii [52]): 4 µg/mL
MIC (Acinetobacter baumannii [53]): 4 µg/mL
MIC (Pseudomonas aeruginosa [54]): 1 µg/mL
MIC (Acinetobacter baumannii [55]): 8 µg/mL
MIC (Acinetobacter baumannii [56]): 2 µg/mL
MIC (Acinetobacter baumannii [57]): 8 µg/mL
MIC (Acinetobacter baumannii [58]): 16 µg/mL
MIC (Pseudomonas aeruginosa [59]): 1 µg/mL
